# Laboratory results from US20250042848A1, “DEUTERATED FUNCTIONALIZED DERIVATIVES OF alpha-ALANINE, IN [sequence] FOR THE TREATMENT OF NEUROLOGICAL DISEASES” (UNIWERSYTET JAGIELLONSKI, priority 2021, published 2025).
# What was measured:
# [1] = system: maximal electroshock seizures in mice; experiment: Maximal electroshock seizure test (MES); format: in vivo
# Experimental: (§1) Initial screening was performed on groups of 4 mice. The mean effective dose (ED50) in a given test and the neurotoxic dose in the rotarod test (TD50) were estimated on the basis of the results obtained on 3-4 groups of animals consisting of 6 animals.
# In the maximal electroshock seizure test (MES), the seizures were induced by 500 V, 25 mA electrical stimulus of 0.2 s in duration. The electrical pulse was generated using an electric shock generator (Rodent shocker, Type 221, Hugo Sachs Elektronik, Germany) and delivered to the animal using electrodes placed on the auricles. The study was conducted 30 minutes/2 hours after intraperitoneal administration of the compounds at various doses. During the experiment, the number of animals that experienced a seizure episode in the form of hindlimb tonic extension was counted (Łuszczki, J.J. et al. Fundam. Clin. Pharmacol. 2008, 22, 69-74).
# (§2) The ED50 (effective dose) and TD50 (toxic dose) values along with the corresponding 95% confidence limits were calculated based on the Litchfield and Wilcoxon method (Litchfield, J.T.; Wilcoxon, F. J. Pharmacol. Exp. Ther. 1949, 96, 99-113). To perform a statistical evaluation of the results in the scPTZ test, one-way ANOVA variance analysis followed by Dunnett's post hoc test were used. The values were considered statistically significant if p<0.05.
# [2] = system: psychomotor seizures induced by a 32 mA, 6 Hz stimulus in mice; experiment: Psychomotor seizure test 6 Hz (32 mA); format: in vivo
# Experimental: as §1
# (§3) In the psychomotor seizure test (6 Hz test), seizures were induced by a 32 mA and/or 44 mA electrical stimulus of a frequency of 6 pulses per second. An electrical pulse was generated using an electric shock generator (ECT Unit 57800; Ugo Basile, Gemonio, Italy) and delivered to the animal using corneal electrodes. Before starting the test, the eye surface was gently moistened with a solution of local anesthetic (1% lidocaine solution). The study was conducted 30 minutes/2 hours after intraperitoneal administration of the compounds at various doses. An electrical stimulus was delivered continuously for a period of 3 seconds, followed by observation of the animal for a period of 10 seconds. During the experiment, the number of animals with an episode of psychomotor convulsions was counted: motor inhibition, staggering, maintaining a sitting posture, forelimb clonus, twitching of the vibrissae and Straub-tail were observed (Leclercq, K.; Kaminski, R.M. Epilepsia 2015, 56, 310-318).
# as §2
# [3] = system: psychomotor seizures induced by a 44 mA, 6 Hz stimulus in mice; experiment: Psychomotor seizure test 6 Hz (44 mA); format: in vivo; details: in mg/kg
# Experimental: as §1, §3, §2
# [4] = system: pentylenetetrazole-induced clonic seizures in mice; experiment: Subcutaneous pentylenetetrazole (scPTZ) seizure test; format: in vivo; details: for ED50 scPTZ: mice, in mg/kg; for latency of the first episode of clonic seizures in the scPTZ test: control 740+212.5 seconds
# Experimental: as §1
# In the subsutaneous pentylenetetrazole seizure test, the animals received pentylenetetrazole at a dose of 100 mg/kg. Test compounds were administered 30 minutes and 2 hours before the experiment. After PTZ administration, the animals were placed individually in transparent cages and observed for a period of 30 minutes/2 hours. During the experiment, the number of animals with a clonic seizure lasting at least 3 s with loss of balance was counted. In addition, the latency of the onset of the first clonic seizure was measured and compared with the control group (Ferreri, G. et al. Pharmacol. Biochem. Behav. 2004, 77, 859-894; Łączkowski, K. et. al. J. Enzym Inhib. Med. Chem. 2016, 31, 1576-1582).
# as §2
# [5] = system: motor coordination of mice; experiment: Rotarod test (motor coordination, acute neurotoxicity); format: in vivo; details: in mg/kg
# Experimental: as §1
# The effect of the tested compounds on motor coordination was assessed in the rotarod test (May Commat, RR 0711 RotaRod, Turkey). The day before the actual experiment, the mice were trained on a rod rotating at 10 revolutions per minute (rpm) for 3 minutes. The experiment was performed 30 minutes and 2 hours after administration of the compounds. The motor coordination of the animals was tested at the speed of the rotating rod: 10 rpm for 60 seconds. The measure of neurotoxicity was the inability to stay on the rod for a given time (Łuszczki, J.J. et al. Eur. Neuropsychopharmacol. 2005, 6, 609-616).
# as §2
# [6] = system: mouse liver microsomes (MLMs); experiment: In vitro metabolic stability, mouse liver microsomes; format: in vitro ADME; details: 120-minute incubation with MLMs, NADPH
# Experimental: (§4) Metabolic stability assessment was performed using mouse (MLMs) and human (HLMs) liver microsomes purchased from Sigma-Aldrich (St. Louis, MO, USA). The detailed methodology is described in the literature (Kamiński et al. J. Med. Chem. 2015, 58, 5274-5286). The reaction mixture was prepared by mixing […] of the tested compound with mouse or human microsomes (1 mg/mL) in 10 mM TRIS-HCl buffer. The reaction mixture was pre-incubated for 5 min at 37° C. After the initial incubation, 50 μL of the NADPH Regeneration System (Promega, Madison, WI, USA) was added to initiate the reaction. The reaction mixture was then incubated for 120 min at 37° C. 200 μL of cold extra pure methanol was added to complete the reaction. The mixture was then centrifuged at 14,000 g for 15 min and the supernatants were analyzed using a Waters ACQUITY™ TQD LC/MS system with a TQ detector (Waters, Milford, USA). Each experiment was performed in triplicate.
# [7] = system: human liver microsomes (HLMs); experiment: In vitro metabolic stability, human liver microsomes; format: in vitro ADME; details: 120-minute incubation with HLMs
# Experimental: as §4
# [8] = system: motor coordination of mice; details: in vivo; cited from earlier work
# [9] = system: spontaneous locomotor activity of mice; details: mouse, in vivo; cited from earlier work
# [10] = system: human liver microsomes (HLMs); details: cited from earlier work
# [11] = molecular target: CYP3A4 (Homo sapiens, UniProt P08684); details: cited from earlier work
# Sequence of CYP3A4 (P08684 whole entry): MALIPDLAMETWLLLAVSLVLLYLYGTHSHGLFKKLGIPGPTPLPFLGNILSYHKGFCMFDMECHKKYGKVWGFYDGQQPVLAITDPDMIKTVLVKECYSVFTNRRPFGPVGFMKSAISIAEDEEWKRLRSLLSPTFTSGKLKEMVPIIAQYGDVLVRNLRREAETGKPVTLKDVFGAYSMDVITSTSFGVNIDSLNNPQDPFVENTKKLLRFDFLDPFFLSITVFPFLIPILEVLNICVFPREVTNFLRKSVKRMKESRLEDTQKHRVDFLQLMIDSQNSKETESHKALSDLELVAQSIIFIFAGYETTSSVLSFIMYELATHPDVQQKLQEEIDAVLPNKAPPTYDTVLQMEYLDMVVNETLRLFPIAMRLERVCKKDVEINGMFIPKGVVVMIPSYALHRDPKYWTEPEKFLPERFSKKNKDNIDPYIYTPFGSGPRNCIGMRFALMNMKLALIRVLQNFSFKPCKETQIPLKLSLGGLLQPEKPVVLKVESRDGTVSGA
# [12] = system: CYP2D9; details: cited from earlier work
# [13] = 0.5 h after i.p. administration
# [14] = 2.0 h after i.p. administration
SMILES,"ED50 MES [1, 13]","ED50 MES [1, 14]","ED50 6 Hz (32 mA) [2, 13]","ED50 6 Hz (32 mA) [2, 14]","ED50 6 Hz (44 mA) [3, 13]","ED50 6 Hz (44 mA) [3, 14]","ED50 scPTZ [4, 13]","ED50 scPTZ [4, 14]",latency of the first episode of clonic seizures in the scPTZ test ([4]; dose 40 mg/kg),latency of the first episode of clonic seizures in the scPTZ test ([4]; dose 60 mg/kg),"TD50 Rotarod [5, 13]","TD50 Rotarod [5, 14]",metabolic stability (metabolites in UPLC chromatograms) [6],metabolic stability [7],effect on mouse motor coordination in the rotarod test [8],sedative effect in spontaneous locomotor activity test on mice [9],metabolic stability on human microsomes [10],interaction with CYP3A4 isoform of cytochrome P-450 [11],interaction with CYP2D9 isoform of cytochrome P-450 [12]
"C[C@H](C(=O)NCc1ccccc1)N1C(=O)CCC1=O [Compound 1, reference compound]",57.7 mg/kg,95.3 mg/kg,16.8 mg/kg,> 130 mg/kg,77.3,>200,30.6,>130,1568+150.9 seconds,1467+210.8 seconds,236.2,>300,no metabolites appeared,high metabolic stability,minimal effect,no sedative effect,very high metabolic stability,no interaction,no interaction
"[2H]c1c([2H])c([2H])c(C([2H])([2H])NC(=O)[C@@H](C)N2C(=O)C([2H])([2H])C([2H])([2H])C2=O)c([2H])c1[2H] [d11-(R)-6, (R)-2-(2,5-dioxopyrrolidin-1-yl-3,3,4,4-d4)-N-((phenyl-d5)methyl-d2) propanamide]",29.5 mg/kg,33.8 mg/kg,,,57.6,70.4,,,,,>100,>300,,high metabolic stability,,,,,
"[2H]c1c([2H])c([2H])c(CNC(=O)[C@@H](C)N2C(=O)C([2H])([2H])C([2H])([2H])C2=O)c([2H])c1[2H] [d9-(R)-2, (2R)-2-(2,5-dioxopyrrolidin-1-yl-3,3,4,4-d4)-N-((phenyl-d5)methyl) propanamide]",45 mg/kg,57.7 mg/kg,18.2 mg/kg,68 mg/kg,78.3,109.8,,,,,165.4,>300,,high metabolic stability,,,,,
"[2H]C([2H])(NC(=O)[C@@H](C)N1C(=O)C([2H])([2H])C([2H])([2H])C1=O)c1ccccc1 [d6-(R)-5, (R)-2-(2,5-dioxopyrrolidin-1-yl-3,3,4,4-d4)-N-(phenylmethyl-d2) propanamide]",33.4 mg/kg,28.7 mg/kg,,,85.6,50.8,,,,,>100,>300,,high metabolic stability,,,,,
"[2H]C([2H])(NC(=O)[C@@H](C)N1C(=O)C([2H])([2H])C([2H])([2H])C1=O)c1ccccc1F [d6-(R)-7, (R)-2-(2,5-dioxopyrrolidin-1-yl-3,3,4,4-d4)-N-((2-fluorophenyl)methyl-d2) propanamide]",,,12.5 mg/kg,13.4 mg/kg,25.1,33.5,,,,,>100,>300,,high metabolic stability,,,,,
"[2H]C1([2H])C(=O)N([C@H](C)C(=O)NCc2ccccc2F)C(=O)C1([2H])[2H] [d4-(R)-4, (R)—N-(2-fluorobenzyl)-2-(2,5-dioxopyrrolidin-1-yl-3,3,4,4-d4) propanamide]",20.5 mg/kg,25.3 mg/kg,12.8 mg/kg,19.8 mg/kg,51.6,36.3,,,,,127.2,>300,,high metabolic stability,,,,,
